Assay results taken from US8694073B2, “Predicting efficacy of psychiatric treatment” (University of Utah Research Foundation, priority 2008, dated 2014).
Where “and” joins values, the source holds several entries; their conditions need not be identical. Equal values may be shown once.

Legend:
MDD subjects = experiment: 4-week open T3 augmentation of SSRI, HAMD-17 depression rating; type: in vivo, human
Excerpt: 19 depressed subjects were recruited through advertisements and clinical referrals for a treatment study at Massachusetts General Hospital between 2001 and 2003, and underwent ^31P MRS scans before and after antidepression treatment. All 19 depressed subjects were between ages of 18 and 65, and suffered from MDD, as determined by pre-antidepression treatment score of ≧16 on the HAMD-17 scale. All 19 MDD subjects had previously shown minimal or no response to treatment with an SSRI taken for ≧8 weeks, with ≧4 weeks at a stable dose (fluoxetine ≧40 mg/day, sertraline ≧100 mg/day, paroxetine ≧40 mg/day, citalopram ≧40 mg/day, escitalopram ≧20 mg/day).
The HAMD-17 scale was administered every 2 weeks.
Nonparametric Wilcoxon rank sum (Mann-Whitney U) test was used to compare baseline levels of ^31P MRS metabolites between MDD subjects and normal control subjects. Clinical outcome was defined as response to treatment (HAMD-17 reduction ≧50% during treatment).

TSH = TSH level by solid-phase radioimmunoassay before treatment and at 4-weeks follow-up; type: in vivo, human; settings: MDD subjects n=19, after 4 weeks T3; baseline TSH 1.75 ± .71

N[C@@H](Cc1cc(I)c(Oc2ccc(O)c(I)c2)c(I)c1)C(=O)O [T3, triiodothyronine]
mean severity of depression HAMD-17 after 4 weeks of treatment (MDD subjects; MDD subjects n=19, T3 50 μg daily added to existing SSRI, baseline HAMD-17 20.3±3.6): 13.3±6.6
treatment responders (HAMD-17 reduction ≧50%) (MDD subjects; MDD subjects, T3 50 μg daily added to SSRI, 4 weeks, seven subjects): 38.9% and 36.8%
clinical remission (final HAMD-17<7) (MDD subjects; MDD subjects, T3 50 μg daily added to SSRI, 4 weeks, six subjects): 31.6%
Final TSH (TSH): .10 ± .24 mIU/L
